Laboratory results taken from ChEMBL document CHEMBL3286206, “Conventional and microwave assisted synthesis of pyrazolone Mannich bases possessing anti-inflammatory, analgesic, ulcerogenic effect and antimicrobial properties” (Bioorg Med Chem Lett, 2014).
In brackets after ≈: the same amount, converted by molar mass. Activity calls are given as the source filed them. The calls are words filed in the database; no cut-off is given here.

Experiments:
Mus musculus [1] = test: Analgesic activity in mouse assessed as inhibition of acetic acid-induced writhing measured as potency at 0.03 mM/kg; parameters: scale not given: the % may be the effect or the level left
Staphylococcus aureus [2] = test: Antimicrobial activity against Staphylococcus aureus assessed as zone of inhibition >8 mm by twofold serial dilution method; format: functional
Rattus norvegicus [3] = test: Ulcerogenic effect in po dosed rat assessed as lesions of bleedings; format: toxicity, organism-based; conditions: in vivo
Rattus norvegicus [4] = test: Antiinflammatory activity in albino rat assessed as inhibition of carrageenan-induced paw edema measured as paw thickness at 0.03 mmol/kg, po administered 1 hr prior to carrageenan challenge measured after 6 hrs (reference value: 1.081 +/- 0.257 mm)
Escherichia coli [5] = test: Antimicrobial activity against Escherichia coli assessed as zone of inhibition >8 mm by twofold serial dilution method; format: functional
Rattus norvegicus [6] = test: Antiinflammatory activity in albino rat assessed as inhibition of carrageenan-induced paw edema at […], po administered 1 hr prior to carrageenan challenge measured after 6 hrs relative to control; format: functional
Staphylococcus aureus [7] = test: Antimicrobial activity against Staphylococcus aureus assessed as zone of inhibition by agar diffusion method; format: functional
Escherichia coli [8] = test: Antimicrobial activity against Escherichia coli assessed as zone of inhibition by agar diffusion method; format: functional
Micrococcus luteus [9] = test: Antimicrobial activity against Micrococcus luteus assessed as growth inhibition by agar diffusion method; format: functional
Rattus norvegicus [10] = test: Antiinflammatory activity in albino rat assessed as inhibition of carrageenan-induced paw edema measured as paw thickness at 0.03 mmol/kg, po administered 1 hr prior to carrageenan challenge measured after 4 hrs (reference value: 1.260 +/- 0.172 mm)
Mus musculus [11] = test: Analgesic activity in mouse assessed as inhibition of acetic acid-induced writhing at 0.03 mM/kg
Klebsiella pneumoniae [12] = test: Antimicrobial activity against Klebsiella pneumoniae assessed as zone of inhibition >8 mm by twofold serial dilution method; format: functional
Klebsiella pneumoniae [13] = test: Antimicrobial activity against Klebsiella pneumoniae assessed as zone of inhibition by agar diffusion method; format: functional
Micrococcus luteus [14] = test: Antimicrobial activity against Micrococcus luteus assessed as zone of inhibition by agar diffusion method; format: functional
Rattus norvegicus [15] = test: Antiinflammatory activity in albino rat assessed as inhibition of carrageenan-induced paw edema at […], po administered 1 hr prior to carrageenan challenge measured after 4 hrs relative to control; format: functional
Staphylococcus aureus [16] = test: Antimicrobial activity against Staphylococcus aureus assessed as growth inhibition by agar diffusion method; format: functional
Micrococcus luteus [17] = test: Antimicrobial activity against Micrococcus luteus assessed as zone of inhibition >8 mm by twofold serial dilution method; format: functional

SMILES	Activity (Mus musculus [1])	MIC (Staphylococcus aureus [2])	Activity (Rattus norvegicus [3])	Activity (Rattus norvegicus [4])	MIC (Escherichia coli [5])	inhibition in vivo (Rattus norvegicus [6])	diameter of the inhibition zone (DIZ) (Staphylococcus aureus [7])	diameter of the inhibition zone (DIZ) (Escherichia coli [8])	growth inhibition (GI) (Micrococcus luteus [9])	Activity (Rattus norvegicus [10])	inhibition (INH) (Mus musculus [11])	MIC (Klebsiella pneumoniae [12])	diameter of the inhibition zone (DIZ) (Klebsiella pneumoniae [13])	diameter of the inhibition zone (DIZ) (Micrococcus luteus [14])	inhibition in vivo (Rattus norvegicus [15])	growth inhibition (GI) (Staphylococcus aureus [16])	MIC (Micrococcus luteus [17])
CC1=NN(C(=O)c2cc3ccccc3oc2=O)C(=O)C1CNc1ccc(S(N)(=O)=O)cc1 (configuration not stated)	94.33%	55 µM (≈ 25 µg/mL)	Non-toxic	0.873 mm	27.5 µM (≈ 12.5 µg/mL)	77.9%	15 mm	12 mm	inactive	1.079 mm	64.93%	55 µM (≈ 25 µg/mL)	15 mm	inactive	68.9%		
CC1=NN(C(=O)c2cc3ccccc3oc2=O)C(=O)C1CNc1ccc(Cl)cc1 (configuration not stated)	103.78%		Toxic	1.125 mm	30.5 µM (≈ 12.5 µg/mL)	71.5%	inactive	12 mm		1.956 mm	71.43%	61 µM (≈ 25 µg/mL)	12 mm	18 mm	43.5%	inactive	61 µM (≈ 25 µg/mL)
CC1=NN(C(=O)c2cc3ccccc3oc2=O)C(=O)C1CNc1ccc(O)cc1 (configuration not stated)	60.38%	63.9 µM (≈ 25 µg/mL)	Toxic	1.947 mm	63.9 µM (≈ 25 µg/mL)	50.7%	12 mm	18 mm		2.231 mm	41.56%	63.9 µM (≈ 25 µg/mL)	18 mm	18 mm	35.6%		128 µM (≈ 50 µg/mL)
COc1ccc(NCC2C(=O)N(C(=O)c3cc4ccccc4oc3=O)N=C2C)cc1 (configuration not stated)	47.17%	61.7 µM (≈ 25 µg/mL)	Toxic	1.821 mm	30.8 µM (≈ 12.5 µg/mL)	55.1%	15 mm	18 mm	inactive	2.215 mm	32.47%	61.7 µM (≈ 25 µg/mL)	18 mm	inactive	36.1%		
CC1=NN(C(=O)c2cc3ccccc3oc2=O)C(=O)C1CNc1cccc(S(N)(=O)=O)c1 (configuration not stated)	49.06%	55 µM (≈ 25 µg/mL)	Non-toxic	0.793 mm	55 µM (≈ 25 µg/mL)	79.9%	18 mm	12 mm	inactive	1.116 mm	33.77%	55 µM (≈ 25 µg/mL)	12 mm	inactive	67.8%		
CC1=NN(C(=O)c2cc3ccccc3oc2=O)C(=O)C1CNc1ccc([N+](=O)[O-])cc1 (configuration not stated)	86.79%	119 µM (≈ 50 µg/mL)	Non-toxic	1.107 mm	119 µM (≈ 50 µg/mL)	72%	12 mm	15 mm		1.32 mm	59.74%	119 µM (≈ 50 µg/mL)	12 mm	15 mm	61.9%		119 µM (≈ 50 µg/mL)
CC1=NN(C(=O)c2cc3ccccc3oc2=O)C(=O)C1CNc1ccc(O)c(C(=O)O)c1 (configuration not stated)	50.94%	115 µM (≈ 50 µg/mL)	Non-toxic	1.939 mm	57.4 µM (≈ 25 µg/mL)	50.9%	12 mm	12 mm		2.396 mm	35.06%	115 µM (≈ 50 µg/mL)	12 mm	12 mm	30.9%		115 µM (≈ 50 µg/mL)
CC1=NN(C(=O)c2cc3ccccc3oc2=O)C(=O)C1CNc1ccccn1 (configuration not stated)	43.4%	66.4 µM (≈ 25 µg/mL)	Toxic	1.961 mm	133 µM (≈ 50 µg/mL)	50.3%	15 mm	15 mm		2.389 mm	29.87%	66.4 µM (≈ 25 µg/mL)	15 mm	12 mm	31.1%		66.4 µM (≈ 25 µg/mL)
O=C(O)c1cn(C2CC2)c2cc(N3CCNCC3)c(F)cc2c1=O [CIPROFLOXACIN]		9.43 µM (≈ 3.12 µg/mL)			4.72 µM (≈ 1.56 µg/mL)		24 mm					0.59 µM (≈ 0.195 µg/mL)	17 mm	25 mm			0.59 µM (≈ 0.195 µg/mL)
COc1ccc2c(c1)c(CC(=O)O)c(C)n2C(=O)c1ccc(Cl)cc1 [INDOMETHACIN]	100%			0.985 mm		76%				1.144 mm	68.83%				67.8%		
CC1=NN(C(=O)c2cc3ccccc3oc2=O)C(=O)C1CNc1c(O)cc(S(=O)(=O)O)c2ccccc12 (configuration not stated)	79.25%	48 µM (≈ 25 µg/mL)		2.16 mm	24 µM (≈ 12.5 µg/mL)	45.3%	15 mm	15 mm	inactive	2.715 mm	54.55%	48 µM (≈ 25 µg/mL)	18 mm	inactive	21.6%		
CC1=NN(C(=O)c2cc3ccccc3oc2=O)C(=O)C1CNc1ccc(C(=O)O)cc1 (configuration not stated)	88.68%	59.6 µM (≈ 25 µg/mL)	Non-toxic	1.081 mm	119 µM (≈ 50 µg/mL)	72.6%	12 mm	12 mm		1.26 mm	61.04%	119 µM (≈ 50 µg/mL)	14 mm	18 mm	63.6%		119 µM (≈ 50 µg/mL)
